Measurements taken from patent US12173309B2, “Compounds for increasing genome editing efficiency” (Max-Planck-Gesellschaft zur Förderung der Wissenschaften …, priority 2017, dated 2024).

Test system: 409-B2 iCRISPR-Cas9n hiPSCs
Experiment: BFP insertion (871 nt ssODN) efficiency in AAVS1 iCRISPR locus, microscopy
Format: cell-based, human
Conditions: 7 days of BFP expression
Source text: FIG. 8: Impact of the CRISPY mix and its component NU7026 on BFP insertion (ssODN) efficacy in human induced pluripotent stem cells. The design of the mtagBFP2 (Subach et al. 2011) ssODN donor and the iCRISPR system is shown in (A). We inserted a 871 nt (including 50 nt homology arms) sequence coding for a 2A-self cleaving peptide in front of a Blue Fluorescent Protein (BFP), directly after the N-terminal nuclear localization signal sequence (NLS) of the Cas9n in the heterozygous AAVS1 iCRISPR locus (409-B2 iCRISPR-Cas9n hiPSCs). If the sequence is inserted, doxycycline will lead to expression of nucleus-imported BFP. […] Two images (50× magnification, white size bar 200 μm) from each of three technical replicates for the respective treatments were used to quantify the percentage of cells with BFP insertion using ImageJ (C).
409-B2 iCRISPR-Cas9n hiPSCs were nucleofected with gRNAs and the Blue Fluorescent Protein (BFP) single stranded oligo (FIG. 8A, 330 ng) in […] for either mock, NU7026, and CRISPY mix treatment. […] Images were blinded and BFP positive nuclei were counted using the Adobe Photoshop CS5 counting tool. Propidium iodide positive nuclei were quantified using ImageJ by dividing the area of nuclei (default threshold) with the mean area of a single nucleus.

In the case of `O=c1cc(N2CCOCC2)oc2c1ccc1ccccc12` [NU7026], the “nuclei positive for BFP” value is reported as 6% and the “increase of nuclei positive for BFP” value (vs no-CRISPY control (3.7%)) is reported as 1.6 fold.
